For assay [1], the target named is T1, SARS-CoV-2 PLpro (Severe acute respiratory syndrome coronavirus 2, UniProt P0DTD1). The experiment in a line: biochemical.
Assay [2] concerns the target T1, SARS-CoV-2 PLpro. The experiment in a line: biochemical. The source holds these as a separate data set.

Drawing on article doi:10.1101/2022.03.30.486313v1 (biorxiv, 2022), this text covers EC50 and IC50 for three molecules.

pEC50, pIC50: −log10 of the molar value.

`Cc1ncc(CSSCc2cnc(C)c(O)c2CO)c(CO)c1O` [Pyritinol]: the negative logarithm of the EC50 (pEC50) at SARS-CoV-2 PLpro [1] is 4.74.
Regarding `CN(C)CCSSCCN(C)C` [DMGA, bis[2-(N,N-dimethylamino)ethyl] disulfide], the pIC50 against SARS-CoV-2 PLpro [2] was 5.03.
As for `O=S(=O)(O)CCSSCCS(=O)(=O)O` [Dimesna], the pEC50 at SARS-CoV-2 PLpro [1] is 2.98.

Usually pEC50 stands for −log10 of the EC50, conventionally taken in molar units. What is called pIC50 is the IC50 on a negative log10 scale, so that one unit is a factor of ten.
